# Where “and” joins values, the source holds several entries; their conditions need not be identical. Equal values may be shown once. Read-outs that look alike come from different tables or passages of the source.
# Tests used:
# [1] = molecular target: T1, Recombinant human JAK1 catalytic domain (Homo sapiens, UniProt P23458); experiment: JAK1 Ulight-JAK1 peptide assay; assay type: biochemical
# T1 construct: amino acids 866-1154; catalog number PV4774; purchased Invitrogen PV4774
# Procedure: Recombinant human JAK1 (catalytic domain, amino acids 866-1154; catalog number PV4774) was purchased from Invitrogen. 1 ng of JAK1 was incubated with 20 nM Ulight-JAK1(tyr1023) peptide (Perkin Elmer catalog number TRF0121) in kinase reaction buffer (15 mM MOPS pH6.8, 0.01% Brij-35, 5 mM MgCl2, 2 mM DTT, 7 μM ATP) with or without 4 μL containing test compound or vehicle (DMSO, 1% final concentration), in a total volume of 20 μL, in a white 384 Opti plate (Perkin Elmer, catalog number 6007290). […] Readout was performed using the Envision with excitation at 320 nm and measuring emission at 615 nm (Perkin Elmer). Kinase activity was calculated by subtracting relative fluorescence units (RFU) obtained in the presence of a positive control inhibitor (10 μM staurosporine) from RFU obtained in the presence of vehicle. The ability of a test compound to inhibit this activity was determined as:
# Percentage inhibition=((RFU determined for sample with test compound present−RFU determined for sample with positive control inhibitor) divided by (RFU determined in the presence of vehicle−RFU determined for sample with positive control inhibitor))*100.
# A dose dilution series was prepared for the compound enabling the testing of dose-response effects in the JAK1 assay and the calculation of the IC50 for the compound. […] The data were expressed as the average IC50 from the assays±standard error of the mean.
# [2] = tested on: IL-2-induced STAT5 phosphorylation (JAK1/JAK3 pathway); experiment: Human whole blood assay (hWBA), IL-2 stimulation, phospho-STAT5 on CD4+ cells; assay type: cell-based; details: 5 different donors
# Procedure: A flow cytometry analysis was performed to establish JAK1 over JAK2 compound selectivity ex vivo using human whole blood. Therefore, blood is taken from human volunteers who gave informed consent. Blood is then equilibrated for 30 min at 37° C. under gentle rocking, then aliquoted in Eppendorf tubes. Compound is added at different concentrations and incubated at 37° C. for 30 min under gentle rocking and subsequently stimulated for 20 min at 37° C. under gentle rocking with interleukin 6 (IL-6) for JAK1-dependent pathway stimulation, Interferon alpha (IFNα) for JAK1/TYK2 pathway stimulation, interleukin 2 (IL-2) for JAK1/JAK3 pathway stimulation or GM-CSF for JAK2-dependent pathway stimulation. Phospho-STAT1 (for IL-6- and IFNα-stimulated cells) and phospho-STAT5 (for IL-2- and GM-CSF-stimulated cells) levels are then evaluated using FACS analysis. […]
# Cells were then washed once with 1×PBS and analyzed on a FACSCanto II flow cytometer (BD Biosciences).
# 50,000 total events were counted and Phospho-STAT1 positive cells were measured after gating on CD4+ cells, in the lymphocyte gate for IL-6- and IFNα-stimulated cells. Phospho-STAT5 positive cells were measured after gating on CD4+ cells, in the lymphocyte gate for IL-2-stimulated cells. Phospho-STAT5 positive cells were measured after gating on CD33+ cells. […]
# T1 sequence (P23458 866-1154): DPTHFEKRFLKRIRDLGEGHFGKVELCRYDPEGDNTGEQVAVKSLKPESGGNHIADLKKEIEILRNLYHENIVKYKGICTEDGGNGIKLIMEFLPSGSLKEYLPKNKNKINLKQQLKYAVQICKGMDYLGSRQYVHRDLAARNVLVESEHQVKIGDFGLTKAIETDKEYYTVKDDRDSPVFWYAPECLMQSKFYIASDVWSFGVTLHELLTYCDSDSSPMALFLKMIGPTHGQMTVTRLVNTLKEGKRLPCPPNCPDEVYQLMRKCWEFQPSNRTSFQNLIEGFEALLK
smiles,measurement,setting,value
"Nc1nc2cccc(-c3ccc(CN4CCS(=O)(=O)CC4)cc3)n2n1 [Formula I, 5-[4-(1,1-Dioxothiomorpholin-4-ylmethyl)-phenyl]-[1,2,4]triazolo[1,5-a]pyridin-2-ylamine]",IC50,"[1]; average, read-out: IC50 (average)",307 nM
same,IC50,"[1]; individual determinations, read-out: IC50",347 nM and 355 nM and 222 nM and 714 nM and 167 nM and 103 nM and 187 nM and 582 nM and 295 nM and 242 nM and 159 nM
same,IC50,[2],19600 nM

# — patent publication US20160296529A1, “AMINOTRIAZOLOPYRIDINE FOR USE IN THE TREATMENT OF INFLAMMATION, AND PHARMACEUTICAL COMPOSITIONS THEREOF” (priority 2012, published 2016)
